{"source": "patent US20190160035A1", "about": "“METHOD OF TREATMENT” (QBIOTICS LIMITED, priority 2016, published 2019)", "key": {"MCT": {"tested_on": "MCT", "assay": "Example 5: neoadjuvant prednisolone action (tumor change between screening and immediate pre-treatment evaluation)", "type": "in vivo, Canis lupus familiaris (dog)", "excerpt": "(§1) Each supervising veterinarian was given latitude to provide and record prophylactic and supportive medications as deemed appropriate for managing potential paraneoplastic events and tumor site necrosis following Compound 1 treatment. However, prednisolone and antihistamines were used as co-therapy. Prednisolone therapy commenced on Day −1 and continued for a further 7 days. H1 and H2 antihistamine therapy (chlorpheniramine and famotidine respectively) commenced on the morning of drug treatment and continued for a further 6 days (see Table 23).\n(§2) RECIST v.1.1 results are summarised in Table 28 which also includes a measure of neoadjuvant prednisolone action (potential tumor shrinkage) between screening and immediate pre-treatment tumor evaluation. Sixteen (16) dogs and eighteen (18) tumors were treated. Raw data for RECIST assessment was collected on Day 0 (immediately pre-treatment) and on Day 28 for fifteen (15) cases. […] With the remaining three (3) cases (C05-T-18, C05-V-01, and C05-V-02), the dogs were not available on Day 28 for RECIST assessment. For dog C05-T-18, the injection site was measured as CR on Days 21 and 37. […] For dog C05-V-01, the injection site was measured as PR on Days 21 and 37 (55% and 60% RECIST reduction respectively). […] For dog […], due to the progressive nature of disease, the animal was removed from study on Day 21."}, "[1]": {"tested_on": "MCT (cutaneous and subcutaneous)", "assay": "Example 5: Compound 1 injection with oral prednisolone and antihistamine co-therapy, RECIST v.1.1 tumor response", "type": "in vivo, Canis lupus familiaris (dog)", "details": "1 mg/kg/day, 24 h pre-treatment and 7 days post-treatment", "excerpt": "This study investigates the efficacy and safety of Compound 1 injection for MCT treatment in the presence of corticosteroids administered under defined clinical situations.\nDogs were selected for the study if they met the criteria in Table 1 (Example 1) but where the dog has at least one MCT.\nWherever possible, the tumor and a 2 cm border surrounding the tumor was shaved prior to treatment. To deliver the drug, the needle of the dosing syringe was inserted into the tumor at the injection point and moved in a radial manner in 2- and 3-dimensions with drug delivered to the tumor mass. Study dogs were clinically examined at 2-4 and 24 hours, and 7 (+2), 14 (+2) and 28 (+2) days post-treatment (and unscheduled visits at attending veterinarian discretion).\nas §1, §2"}, "[2]": {"details": "following 24 h neoadjuvant prednisolone, dog C05-T-17"}, "[3]": {"details": "per case (one dog tumor per line), negative = increase"}}, "note": "Several values for one entry are separate records, joined by “and”; a condition that tells them apart may be missing. Equal values may be shown once.", "data": [{"smiles": "C[C@]12C=CC(=O)C=C1CC[C@@H]1[C@@H]2[C@@H](O)C[C@@]2(C)[C@H]1CC[C@]2(O)C(=O)CO", "note": "[prednisolone]", "values": [{"measurement": "RECIST reduction following 24 h prednisolone administration, Mean", "setting": "MCT; Mean of cases", "value": 5, "unit": "%"}, {"measurement": "Tumor vol (cm^3) reduction following 24 h prednisolone administration, Mean", "setting": "MCT; Mean of cases", "value": 27, "unit": "%"}, {"measurement": "RECIST reduction following 24 h prednisolone administration, Median", "setting": "MCT; Median of cases", "value": 6, "unit": "%"}, {"measurement": "Tumor vol (cm^3) reduction following 24 h prednisolone administration, Median", "setting": "MCT; Median of cases", "value": 31, "unit": "%"}, {"measurement": "Decrease in RECIST measure from screening to pre-treatment evaluation", "setting": "MCT; [2]", "value": 6, "unit": "%"}, {"measurement": "Decrease in tumor volume from screening to pre-treatment evaluation", "setting": "MCT; [2]", "value": 31, "unit": "%"}, {"measurement": "Tumor response following 24 h prednisolone administration (screening to immediate pre-treatment): RECIST reduction", "setting": "MCT; [3]", "value": "−5% and 8% and −23% and 39% and −12% and 0% and 16% and −8% and 28% and 12% and 20% and 6% and 34% and −26% and −20%"}, {"measurement": "Tumor response following 24 h prednisolone administration (screening to immediate pre-treatment): Tumor vol (cm^3) reduction", "setting": "MCT; [3]", "value": "23% and 62% and −36% and 71% and 61% and 13% and 59% and 35% and 45% and 27% and 31% and 76% and −118% and 14%"}, {"measurement": "Effect of oral prednisolone on drug (Compound 1) action", "setting": "[1]", "value": "limited or no suppressive effects"}]}]}
